Source: patent US20250049914A1, “STEROID ACID-PEPTIDE BASED INTRACELLULAR CARGO DELIVERY” (DEFENCE THERAPEUTICS INC., priority 2021, published 2025)
Where no end group is shown, it is not given here.

Key:
BMDCs = assay: Antigen-presentation assay using the B3Z reporter system, BMDCs; assay type: cell-based, mouse; conditions: for antigen cross-presentation of OVA (B3Z response) vs OVA alone / antigen-presentation activity of cholic acid-NLS peptide conjugates (B3Z response): BMDCs; for antigen cross-presentation of OVA (B3Z response) vs OVA alone: OVA mixed with bile acid/peptide/conjugate, molar ratio 4:1; for antigen-presentation activity of cholic acid-NLS peptide conjugates (B3Z response): OVA admixed, best conjugate: antigen ratio
Experimental: Mouse bone marrow derived DCs (BMDCs) were generated by flushing the whole marrow from mouse femurs using RPMI™ 1640 supplemented with 10% fetal bovine serum (FBS), 50 U/mL Penicillin-Streptomycin, 2 mM L-glutamine, 10 mM HEPES, 1% MEM Non-essential Amino Acids, 1 mM Sodium Pyruvate, 0.5 mM beta-mercaptoethanol. Following red blood cell lysis, cells were then cultured in media supplemented with 50 ng/mL murine recombinant GM-CSF. The media was changed on days 2, 4, 6 and 8. On day 9, the media was replaced to include recombinant murine GM-CSF and LPS from Escherichia coli 0111 (1 ng/mL) to stimulate DC maturation. Mature DCs were assessed by flow cytometry for their surface expression of CD3, CD19, NK1.1, CD11c, CD80, CD86, and I-A^b.
(§1) Various bile acid-NLS conjugates were screened using the B3Z reporter system. The B3Z cell line is a T-cell hybridoma specific for the H2-K^b-[…] complex. Once activated via its TCR, the LacZ reporter gene (under the NFAT promoter control) is expressed. Briefly, 1.5×10^5 BMDCs or 2.5×10^5 MSCs were co-cultured with 5×10^4 B3Z cells treated with the mixing conditions of ovalbumin (OVA) and bile acid-NLS conjugates for overnight at 37° C. with 5% CO2. The following day, all cells were washed twice with PBS (pH 7.4), and the cell pellets were lysed by adding 100 μL of a lysis buffer containing 0.15 mM chlorophenol red-beta-D-galactopyranoside (CPRG) substrate (Calbiochem, La Jolla, CA), 0.125% NP40 (EMD Sciences, La Jolla, CA), 9 mM MgCl2 (Aldrich, USA) and 100 mM 2-mercaptoethanol in PBS. After a 5- or 24-h incubation at 37° C., absorbance was taken at 570 nm with 636 nm as the reference wavelength. For these experiments, OVA was re-suspended in PBS (pH 7.3) at 5-10 mg/mL. The different bile acid-NLS conjugates were re-suspended in H2O at 10 mg/mL. Bile acid-NLS conjugate: antigen mixtures were prepared at different molar ratios according to Table 1.
Variants of CA-SV40NLS were synthesized in order to explore structure-activity relationships relating to the antigen cross-presentation enhancing activity observed for this conjugate, and therefore a measure of antigen/cargo delivery. More particularly, conjugates having different bile acids conjugated to the SV40NLS peptide (SEQ ID NO: 1) were synthesized and their effect on antigen presentation was evaluated by using the B3Z reporter system with the OVA antigen as described in Example 1. […] In FIG. 11, no increase in antigen cross-presentation in BMDCs over the antigen alone (“OVA”) was observed when OVA was mixed with either unconjugated cholic acid (“CA”) or SV40NLS peptide (“SV40NLS”), although lower sensitivity of the B3Z reporter system as compared to the OT-I CD8 T cell-based assay may have been a factor.
(§2) Further variants of CA-SV40NLS were synthesized in which the SV40NLS peptide was replaced with peptides comprising other NLS's (Table 5) and the antigen presentation activities of the CA-NLS peptide conjugates were evaluated using the B3Z reporter system as described in Example 1. The following conjugate: antigen molar ratios were tested for each conjugate: 2:1, 4:1, 8:1, 12:1 and 22:1. The results in FIGS. 12-15 compare the antigen presentation activities of different conjugates at the conjugate: antigen ratio that yielded the highest B3Z response (OD570) for that conjugate.

WT MSCs = assay: Antigen cross-presentation assay on wild-type MSCs with B3Z cells; assay type: cell-based, mouse; conditions: WT MSCs treated with CA-hnRNPA1 and OVA
Experimental: In order to generate Bone marrow (BM)-derived mouse MSCs, the femurs of 6-8-week-old female Balb/c or C57BL/6 mice were isolated and flushed with Alpha Modification of Eagle's Medium (AMEM) supplemented with 10% FBS and 50 U/mL Penicillin-Streptomycin in a 10 cm cell culture dish, then incubated at 37° C. Two days later, non-adherent cells were removed and the media replaced every 3 to 4 days until plastic-adherent cells reached 80% confluency. The generated cells were detached using 0.05% trypsin and expanded until a uniform MSC population was obtained. The generated MSCs were validated for their innate phenotype by flow-cytometry for the expression of CD44, CD45, CD73, and CD90. The cells were frozen in liquid nitrogen until use.
To assess cross-presentation assay, 25×10^3 cells MSCs were seeded per well in 24-well plate then pulsed with steroid acid peptide-conjugated for 6 h admixed with OVA. At the end of the pulsing period, the cells were washed to remove excess antigen then 5×10^4 B3Z cells. The cells were incubated for 17-19 hours prior to their lysis and incubation for another 4-6 hours at 37° C. with a CPRG solution. The optical density signal was detected at wavelength 570 using a SynergyH1™ microplate reader (Biotek, Winooski, VT, United States).
To determine whether a similar effect occurs in wild type (WT) (i.e., non-engineered) MSCs, BM-derived MSCs (Example 1) were used instead in the same cross presentation assay with B3Z responder cells.

[1] = test system: cross-presenting mesenchymal stromal cell line (cpMSC); assay: Antigen-presentation assay using the B3Z reporter system, cross-presenting MSC line; assay type: cell-based; conditions: cpMSCs, OVA admixed, vs OVA alone or OVA mixed with CA-SV40NLS
Experimental: as §1, §2

cpMSCs [2] = assay: OVA-AF647 internalization in cpMSCs, flow cytometry; assay type: cell-based; conditions: various molar ratios
Experimental: For this experiment, a cross-presenting mesenchymal stromal cell line (cpMSC) was used as the antigen presenting cells, which were pulsed with the OVA cargo labelled with Alexa Fluor 647 (i.e., OVA^647)^TM. OVA^647 fluorescence was measured by flow cytometry. Different ratios of CA (NLS1 RPS17 [FIG. 16A]; NLS3 RPS17 [FIG. 16B]; and PQBP-1 [FIG. 16C] to antigen (CA: OVA=22:1, 12:1, 8:1, 4:1, and 2:1) were tested (hnRNPA1 M9 NLS at 2:1).
(§3) To further dissect the effect of bile acid peptide conjugates on antigen presentation, antigen internalization and processing were evaluated. cpMSCs were pulsed with OVA-labelled with AF647 in the presence of various molar ratios of different bile acid peptide conjugates, NLS1-RPS17 [FIG. 16A]; NLS3 RPS17 [FIG. 16B]; PQBP-1 [FIG. 16C]; and hnRNPA1 M9 NLS [FIG. 6]) and fluorescence was assessed by flow cytometry. […] OVA processing was assessed by pulsing cpMSCs with DQ™-Ovalbumin (OVA-DQ) in the presence of the same bile acid peptide conjugates as in FIGS. 6 and 16.

cpMSCs [3] = assay: OVA-DQ processing in cpMSCs, flow cytometry; assay type: cell-based; conditions: various molar ratios
Experimental: For this experiment, a cross-presenting mesenchymal stromal cell line (cpMSC) was used as the antigen presenting cells, which were pulsed with DQ™ Ovalbumin (i.e., OVADQ). OVADQ fluorescence was measured by flow cytometry. Different ratios of CA (NLS1 RSP17 [FIG. 17A]; NLS3 RPS17 [FIG. 17B]; and PQBP-1 [FIG. 17C] to antigen (CA: OVA=22:1, 12:1, 8:1, 4:1, and 2:1) were tested (hnRNPA1 M9 NLS at 2:1).
as §3

UDCA: ursodeoxycholic acid conjugated to the SV40NLS peptide (SEQ ID NO: 1) (CGYGPKKKRKVGG; not fully specified (N-terminus); also: ursodeoxycholic acid conjugate, site not given here)
antigen cross-presentation of OVA (B3Z response) vs OVA alone (BMDCs): comparable or higher

CC(=O)c1ccc2c(c1)Nc1ccccc1S2 [ML171]
effect of inhibitor on the antigen cross-presentation capacity of CA-hnRNPA1 (WT MSCs): neutralization

GWG-SV40NLS: cholic acid conjugated to peptide CGWWGYGPKKKRKVGGWWG (SEQ ID NO: 3) (not fully specified (N-terminus); also: cholic acid conjugate, site not given here)
antigen-presentation activity of cholic acid-NLS peptide conjugates (B3Z response) (BMDCs): higher antigen-presentation activity than SV40NLS | antigen-presentation activity of cholic acid-NLS peptide conjugates (B3Z response) [1]: strikingly high antigen-presentation activity

NLS3-RPS17: cholic acid conjugated to NLS3 RPS17 peptide SKKLRNKIAGYVTHLMKRI (SEQ ID NO: 11)
antigen-presentation activity of cholic acid-NLS peptide conjugates (B3Z response) (BMDCs): high antigen presentation activity | OVA internalization (OVA-AF647 fluorescence) (cpMSCs [2]): enhance OVA internalization | OVA processing (OVA-DQ fluorescence) (cpMSCs [3]): enhance OVA processing

cMyc NLS: cholic acid conjugated to cMyc NLS peptide CGYGPAAKRVKLDGG (SEQ ID NO: 12) (not fully specified (N-terminus); also: cholic acid conjugate, site not given here)
antigen-presentation activity of cholic acid-NLS peptide conjugates (B3Z response) (BMDCs): high antigen presentation activity

NLS2-RG Domain RPS17: cholic acid conjugated to NLS2-RG Domain RPS17 peptide (SEQ ID NO: 8) (CNKRVCEEIAIIPSKKLRNKGSGRIQRGPVRGIS; cysteine pairing not given here; also: cholic acid conjugate, site not given here)
antigen-presentation activity of cholic acid-NLS peptide conjugates (B3Z response) (BMDCs): high antigen presentation activity

CC1(C)CC(NC(=O)C[P+](c2ccccc2)(c2ccccc2)c2ccccc2)CC(C)(C)N1[O] [MitoTempo™]
effect of inhibitor on the antigen cross-presentation capacity of CA-hnRNPA1 (WT MSCs): did not neutralize

GCDCA: glycochenodeoxycholic acid conjugated to the SV40NLS peptide (SEQ ID NO: 1) ({Glycochenodeoxycholic acid}-CGYGPKKKRKVGG; also: glycochenodeoxycholic acid conjugate, MOD_RES 1 Cholic Acid (ChAc))
antigen cross-presentation of OVA (B3Z response) vs OVA alone (BMDCs): comparable or higher

SV40NLS: unconjugated NLS peptide CGYGPKKKRKVGG (SEQ ID NO: 1) (not fully specified) [reference compound]
antigen cross-presentation of OVA (B3Z response) vs OVA alone (BMDCs): no increase

Cc1c(C)c2c(c(C)c1O)CC[C@@](C)(CCC[C@H](C)CCC[C@H](C)CCCC(C)C)O2 [α-tocopherol]
effect of inhibitor on the antigen cross-presentation capacity of CA-hnRNPA1 (WT MSCs): neutralization

C[C@H](CCC(=O)O)[C@H]1CC[C@H]2[C@@H]3[C@H](O)C[C@@H]4C[C@H](O)CC[C@]4(C)[C@H]3C[C@H](O)[C@]12C [CA, cholic acid, reference compound]
antigen cross-presentation of OVA (B3Z response) vs OVA alone (BMDCs): no increase

C[C@H](CCC(=O)NCC(=O)O)[C@H]1CC[C@H]2[C@@H]3[C@@H](O)C[C@@H]4C[C@H](O)CC[C@]4(C)[C@H]3CC[C@]12C [GUDCA, glycoursodeoxycholic acid, reference compound]
immunogen enhancer activity across GUDCA: OVA molar ratios (BMDCs; 2:1, 4:1, 8:1, 12:1 and 22:1): observed at all GUDCA: OVA molar ratios tested | increase in B3Z response (OD570) over OVA alone (BMDCs; OVA mixed with unconjugated GUDCA, 22:1, data not shown): ≤ 30%

PQBP-1 NLS: cholic acid conjugated to PQBP-1 NLS peptide CADREEGKERRHHRREELAPY (SEQ ID NO: 7) (not fully specified (N-terminus); also: cholic acid conjugate, site not given here)
antigen-presentation activity of cholic acid-NLS peptide conjugates (B3Z response) (BMDCs): strikingly high antigen-presentation activity | antigen-presentation activity of cholic acid-NLS peptide conjugates (B3Z response) [1]: strikingly high antigen-presentation activity | OVA internalization (OVA-AF647 fluorescence) (cpMSCs [2]): enhance OVA internalization | OVA processing (OVA-DQ fluorescence) (cpMSCs [3]): enhance OVA processing

CC(=O)N[C@@H](CS)C(=O)O [N-acetylcysteine]
effect of inhibitor on the antigen cross-presentation capacity of CA-hnRNPA1 (WT MSCs): neutralization

c1ccc2c(c1)[I+]c1ccccc1-2 [DPI, diphenyleneiodonium chloride]
effect of inhibitor on the antigen cross-presentation capacity of CA-hnRNPA1 (WT MSCs): neutralization
